Data set [1] in a line: In situ closed ileum loop administration study: insulin co-administered with additives. As to conditions: in situ rat ileal loop; for Effect on the intestinal absorption of insulin (in words): insulin 50 IU/kg co-administered with additive at 32 mM, N=3-8. The protocol:
(§1) Additional i.p. injections of sodium pentobarbital (12.5 mg/kg) were administered every 1 h to maintain anesthesia. The ileum was exposed following a small midline incision made carefully in the abdomen. Its proximal to ileocecal junction segments (length = 10 cm) were cannulated at both ends using polypropylene tubing and ligated securely to prevent fluid loss. To wash out the intestinal contents, PBS warmed to 37 °C was circulated through the cannula at 5.0 mL/min for 4 min using an infusion pump. The cannulation tubing was removed, the segments were closed tightly and returned carefully to their original location inside the peritoneal cavity. Rats were kept on the board at 37 °C for an additional 30 min to calm biological reactions such as elevated blood glucose levels resulting from the stress imposed by surgery. […] To examine dose dependency, the final concentrations of tryptophan were adjusted to 4, 8, 16 and 32 mM. In the comparison study with three hydrophobic amino acids or metabolite of L-tryptophan, the final concentrations of L-isoleucine, L-proline, L-phenylalanine and serotonin were 32 mM. In the study examining the synergistic effect of L-arginine and L-tryptophan, the final concentration of L-arginine was fixed at 40 mM.
During the experiment, 0.25 mL blood aliquots were taken from the jugular vein at 0, 5, 10, 15, 30, 60, 120 and 180 min after dosing. The tuberculin syringes (1 mL, Terumo Corp., Tokyo, Japan) were heparinized by the standard procedure of coating the syringe wall with aspirated heparin and then expelling all the heparin. […] The plasma concentrations of FDs were measured with a microplate fluorimeter (Synergy HT, BioTek Instruments Inc., Winooski, VT, USA) at excitation and emission wavelengths of 485 and 528 nm, respectively.

Data set [2] concerns Caco-2 cell monolayers. In words: TEER measurement of Caco-2 monolayer. The class given is cell-based, human. The note with it: 37 °C, N=3. The protocol:
In preparation for the assays, the cell membranes were allowed to equilibrate for 30 min in transport buffer; HBSS (pH 7.4) with 0.001% MC was added to the apical (0.5 mL) and basal (1.5 mL) chambers of the transwell.
The TEER of the Caco-2 monolayer was measured to confirm cell growth and differentiation on the insert filter of the transwell using a Millicell ERS-2 (Millipore Corp., Bedford, MA, USA). Before seeding the Caco-2 cells, the electrical resistance of the insert filter in the medium was measured and subtracted from the total electrical resistance determined for the monolayer to calculate the intrinsic TEER of the monolayer. The TEER of the monolayer was measured at the end of the 2 h incubation to detect any negative effects of the applied L-tryptophan on the intercellular tight junctions. The TEER is expressed as a percentage calculated by dividing the TEER value (Ω cm^2) at 2 h by the initial value.

Data set [3] concerns Caco-2 cell monolayers. The note with it: 9.6 mM (equivalent to 4.2 mg/kg in the animal study) added to transwell; cited from earlier work.
Data set [4] addresses T1, insulin (Homo sapiens, UniProt P01308).
T1 construct: purchased Wako Pure Chemical Industries, Ltd. (Osaka, Japan)
In words: SPR-based binding assay on immobilized insulin. The protocol:
Reference surfaces were prepared by amine coupling activation followed by immediate deactivation. […] At the end of each cycle, the surface was regenerated by a 30 s injection of 1 M NaCl. […] Each sensorgram was determined by subtracting nonspecific binding on the surface of the reference flow cell from total binding on the immobilized-insulin surface.

Data set [5] in a line: In situ closed ileum loop absorption of dextrans and peptide drugs with or without L-tryptophan. As for the experimental part:
as §1, with “In the comparison study with three hydrophobic amino acids or metabolite of L-tryptophan, the final concentrations of L-isoleucine, L-proline, L-phenylalanine and serotonin were 32 mM. In the study examining the synergistic effect of L-arginine and L-tryptophan, the final concentration of L-arginine was fixed at 40 mM.” left out
During the experiment, 0.25 mL blood aliquots were taken from the jugular vein at 0, 5, 10, 15, 30, 60, 120 and 180 min after dosing. […] The plasma concentrations of FDs were measured with a microplate fluorimeter (Synergy HT, BioTek Instruments Inc., Winooski, VT, USA) at excitation and emission wavelengths of 485 and 528 nm, respectively.

For data set [6] the following is noted: insulin co-administered with additive at 40 mM; cited from earlier work.
Data set [7] has as its system Caco-2 cell monolayers. In words: Transcellular transport assay: insulin permeation through Caco-2 monolayer. The note with it: Caco-2 transwell, apical to basal, insulin 15 μM co-incubated with additive 2.4 or 16 mM, HBSS pH 7.4, 2 h, 37 °C; N=3.
Protocol: For TEER measurement, Caco-2 cells were grown in 12-well transwell plates with a 1.13 cm^2 culture area (collagen-coated polytetrafluoroethylene (PTFE) membrane with 0.4 μm pore size, Corning Inc., Corning, NY, USA). The cells were cultured to a density of 1.0 × 10^5 cells/cm^2. […] The culture medium was changed every second day and the electrical resistance was monitored by the method described below. Each well consisted of apical (top) and basal (bottom) chambers, which were separated by a collagen-coated polytetrafluoroethylene membrane with a pore size of 0.4 μm and a filter area of 1.12 cm^2.
In preparation for the assays, the cell membranes were allowed to equilibrate for 30 min in transport buffer; HBSS (pH 7.4) with 0.001% MC was added to the apical (0.5 mL) and basal (1.5 mL) chambers of the transwell. […] During the incubation, the Caco-2 monolayer was kept at physiological temperature (37 °C).
Data set [8] deals with rat ileal segments. In words: In situ LDH leakage from rat ileal segments. The note with it: rat ileal loop; insulin 50 IU/kg with L-tryptophan 16 and 32 mM; fluid collected 60 min after administration; N=3; positive control 5% sodium taurodeoxycholate. The data set is classed as in vivo.
Protocol: (§2) To assess the cytotoxic effects of L-tryptophan, the integrity of the cell membrane after treatment with the CPPs was examined by measuring the lactate dehydrogenase (LDH) released from the cytoplasm under both in vitro and in situ conditions.
For the trial with the highest concentration of L-tryptophan (50 mM), L-arginine (40 mM) was added as a solubilizing agent. For this test, 5% sodium taurodeoxycholate was used as a positive control. At 60 min after administration, the ileal loop was washed with 5.0 mL of PBS and then intestinal fluid was collected. After adjusting the collected intestinal fluid to a total volume of 6.0 mL with PBS, the activity of LDH (Unit) leaked into the intestinal fluid was determined using an LDH kit (Promega Corp.).
The nature of data set [9]: In vivo oral administration study, blood glucose levels. The note with it: mice fasted 24 h; oral gavage insulin 50 IU/kg with L-tryptophan 32 mM (100 μL); blood glucose 0-360 min; N=6-8.
Protocol: Blood glucose levels were measured (One Touch Ultra View, Johnson & Johnson K.K., Tokyo, Japan) by collection of blood (one drop) from a small cut in the tail vein at t = 0 (prior to dosing), 15, 30, 60, 120, 180, 240, 300 and 360 min after administration. Blood glucose levels are depicted as percentage of the initial value in same mouse. Mice were trained with oral dosing and tail cutting at 24 h and 60 min prior to actual drug administration to avoid the unexpected elevation of blood glucose levels during experiments.
Data set [10] relates to Caco-2 cells. As to the kind of experiment: Cell viability assay (WST-8, CCK-8). The data set is classed as cell-based, human. As to conditions: completed DMEM, 600–2400 μM, 2 h then 3 h with CCK-8, N=6-11.
Protocol: To examine the cellular viability of Caco-2 cells exposed to L-tryptophan, a WST-8 assay was performed with Cell Counting Kit-8 (CCK-8, Dojindo Laboratories, Kumamoto, Japan). The Caco-2 cells were grown in 96-well plates with a 0.33 cm^2 culture area (Nippon Becton Dickinson) to a density of 3.0 × 10^4 cells/cm^2 and then grown in 100 μL of completed DMEM for 3 or 4 days. In this assay, the completed DMEM was used in place of the incubation buffer to prevent the possible loss of cell viability during total 5 h incubation in HBSS. First, 10 μL of L-tryptophan stock solution (eleven times concentration) or transport buffer was added to 100 μL of completed DMEM and the cells were incubated with various concentrations of L-tryptophan (600–2400 μM) for 2 h. Then, 10 μL of CCK-8 reagent was added to the wells and the cells were incubated for an additional 3 h to allow for the reductive reaction of WST-8. The resulting absorbances of the incubated solution in the wells were read with a microplate reader (Synergy HT, BioTek Instruments Inc.) at a wavelength of 450 nm. In this assay, 0.8% of Triton X-100 was used as a positive control, same as the LDH assay.
Data set [11] has as its system Caco-2 cells. In words: In vitro LDH leakage. As to conditions: HBSS pH 7.4 with 0.001% MC, 300–2400 μM, 120 min, 37 °C, relative to 0.8% Triton X-100, N=3. The data set is classed as cell-based, human.
Protocol: as §2
In the in vitro assay, the Caco-2 cells were grown in 24-well plates with a 1.88 cm^2 culture area (Nippon Becton Dickinson) at the density of 1.0 × 10^5 cells/cm^2 and then grown in completed DMEM for 3 or 4 days. Before the addition of L-tryptophan, cell membranes were allowed to equilibrate in 0.5 mL of assay buffer for 30 min. HBSS containing 0.001% MC (pH 7.4) was added to the wells as the transport buffer. After a 30 min pre-incubation with transport buffer, the assay was initiated by replacing 50 μL of transport buffer with 50 μL of L-tryptophan stock solution (ten times concentration) or transport buffer. […] The incubation buffer was collected and LDH released from the cytoplasm into the incubation buffer was determined using a CytoTox 96 Non-Radioactive Cytotoxicity Assay kit (Promega Corp., Madison, WI, USA). Cytotoxicity was expressed as the percentage calculated by dividing the absorbance of the vehicle (HBSS) or the L-tryptophan-treated sample by that of a sample treated with 0.8% Triton X-100, according to the instructions of assay kit.

T1 sequence (P01308 25-54 limits assumed): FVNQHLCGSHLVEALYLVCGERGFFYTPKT
T1 sequence (P01308 90-110 limits assumed): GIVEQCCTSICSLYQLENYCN

Turning to `O=C(O)[C@@H]1CCCN1` [L-proline], the “Effect on the intestinal absorption of insulin (in words)” value (from here on “Effect … (in words)”) in [1] is “no stimulatory effect on insulin absorption”.

In the case of `CCCCCCCCCC(=O)[O-].[Na+]` [C10, sodium caprate], the “Change in TEER of Caco-2 cell monolayers” value in [2] (typical enhancer as positive control, concentration not given, 2 h) is recorded as “significant reduction in TEER”.

Turning to RQIKIWFQNRRMKWKK [L-penetratin], in [1] (insulin 50 IU/kg co-administered with L-tryptophan 8-32 mM, L-penetratin 0.5 mM or D-tryptophan 16 and 32 mM, time after administration), the “Onset of action / of insulin absorption after co-administration” value was determined as 15 min.

`CC[C@H](C)[C@H](N)C(=O)O` [L-isoleucine]: in data set [1], the “Effect … (in words)” value is “no stimulatory effect on insulin absorption”.

As for `N=C(N)NCCC[C@H](N)C(=O)O` [L-arginine], the “Opening of tight junctions in Caco-2 cell monolayers” value in data set [3] is “no opening of tight junctions was observed”. The Binding with insulin result in data set [4] (data not shown) is “showed no binding with insulin”. In addition, the “Effect on the intestinal absorption of peptide drugs (GLP-1, Exendin-4)” value in data set [5] (data not shown) is given as “had no effect on the intestinal absorption of such peptide drugs”. Also, the “Tmax of insulin absorption after co-administration” value in data set [6] was 12.8 ± 0.9 min.

Regarding `N[C@@H](Cc1ccccc1)C(=O)O` [L-phenylalanine], the “Effect … (in words)” value in data set [1] is listed as “no stimulatory effect on insulin absorption”.

Take `NCCc1c[nH]c2ccc(O)cc12` [Serotonin, serotonin]: the “Change in TEER of Caco-2 cell monolayers” value in data set [2] (apical, insulin 15 μM with additive 2.4 or 16 mM, HBSS pH 7.4, 2 h) is recorded as “increased the TEER”. Further, the “Effect … (in words)” value in data set [1] is recorded as “could enhance the intestinal absorption of insulin”. Also, the “Permeation of insulin through Caco-2 monolayer” value in data set [7] is listed as “no stimulatory effect on the permeation of insulin”.

With `N[C@@H](Cc1c[nH]c2ccccc12)C(=O)O` [L-Tryptophan, L-tryptophan], the “Change in TEER of Caco-2 cell monolayers” value in [2] (apical, insulin 15 μM with additive 600–16,000 μM, HBSS pH 7.4, 2 h, TEER at 120 min vs initial) is “No change in the TEER values”. Besides, the “Leakage of LDH into intestinal fluid (in situ)” value in [8] is reported as “negligible”. The “Hypoglycemic reaction / oral absorption of insulin (blood glucose levels)” value in data set [9] is listed as “could enhance the oral absorption of insulin”. Moreover, the “Binding to immobilized insulin (SPR sensorgram)” value in data set [4] (CM5 chip, analyte 2–200 μM, HBSS pH 7.4 with 0.001% MC, 25 °C, 90 s injection) is given as “do not show an increase”. Besides, the “Cell viability (WST-8)” value in data set [10] is “no decrease in cell viability”. Also, in data set [11], the “Release of LDH into the media (in vitro)” value is reported as “no release of LDH”.

GLP-1: in data set [5] (rat, in vivo, 1.25 mg/kg), the “AUC, −L-Tryptophan” value is reported as 1.35 ± 0.27 ng·h/mL.

The values above are taken from PMC6321321 (Pharmaceutics, 2018).
